Measured values taken from US11318133B2, “Modulators of integrated stress response pathway” (Praxis Biotech LLC, priority 2019, dated 2022).

How the values were obtained:
[1] = tested on: Chinese hamster ovary (CHO) cells; test: Protein synthesis assay (puromycin incorporation, western blot); assay type: cell-based; conditions: without Tg, 2 hours, media alone = 100%
Experimental: Chinese hamster ovary (CHO) cells were maintained at 37° C. and 5% CO2 in Dulbecco's Modified Eagle's Media (DMEM) supplemented with 10% fetal bovine serum, 2 mM L-glutamine, 100 U/ml penicillin, and 100 μg/ml streptomycin. After reaching 80% of confluence, cells were detached and seeded on 6 well plates in complete media, allowed to recover overnight and treated for 2 hours with 1 μM of the test compound (to assess protein synthesis levels in unstressed condition), or for 2 hours with 300 nM Tg in the presence of 1 μM of the test compound (to assess the recovery of protein synthesis in a stressed condition). Cells with Tg alone were used as controls.
After the 2 hours treatments, media were replaced by adding 10 μg/ml puromycin (Sigma Aldrich #P8833) in complete media for 30 min. Media were removed and cells were lysed with SDS-PAGE lysis buffer. Lysates were transferred to 1.5 ml tubes and sonicated for 3 min and total protein amount were quantified using BCA Protein Assay Kit (Pierce). Equal amount of protein (30 μg) was loaded on SDS-PAGE gels. Proteins were transferred onto […] PVDF membranes (BioRad) and probed with primary antibodies diluted in Tris-buffered saline supplemented with 0.1% Tween 20 (Merck #S6996184 505) and 3% bovine serum albumin (Rockland #BSA-50).
Puromycin (12D10) (Merck #MABE343) and […] (Sigma Aldrich #A5441) antibodies were used as primary antibody. A HRP-conjugated secondary antibody (Rockland) was employed to detect immune-reactive bands using enhanced chemiluminescence (ECL Western Blotting Substrate, Pierce). Quantification of protein bands was done by densitometry using ImageJ software.
Percent increase of protein synthesis in unstressed cells (without Tg treatment) in the presence of media alone or certain test compounds is shown in Table 3. The percentage levels were normalized to the media alone condition, which correspond to 100% protein synthesis.
Percent recovery of protein synthesis in stressed cells (with Tg treatment) due to the test compounds at 1 μM is also shown in Table 3. The levels were normalized to the media alone and Tg alone conditions, which correspond to 100% and 0% respectively.

ATF4 = ATF4 expression inhibition assay (ATF4 luciferase reporter, thapsigargin-stressed); assay type: cell-based; conditions: Homo sapiens, HEK-293T; HEK293T cells carrying ATF4 luciferase reporter, 100 nM thapsigargin, 3 hours
Experimental: The ATF4 reporter was prepared by fusing the human full length 5′UTR of ATF4 (NCBI Accession No. BC022088.2) upstream of the firefly luciferase coding sequence lacking the initiator methionine. The fused sequence was cloned into pLenti-EF1a-C-Myc-DDK-IRES-Puro cloning vector (Origen #PS100085) using standard methods. Virus production was carried out by using Lenti-X™ Packaging Single Shots Protocol (Clonetech #631276). Viral particles were used to transduce HEK293T cells (ATCC #CRL-3216, ATCC Manassas, Va.), which were subsequently selected with puromycin to generate stable cell line. Cells were maintained at 37° C. and 5% CO2 in DMEM-F12 (Hyclone #SH30023.02) supplemented with 10% heat-inactivated fetal bovine serum (Gibco #16000-044), 2 mM L-glutamine (Gibco #25030-081), 100 U/ml penicillin, and 100 μg/ml streptomycin (Gibco #15140-122).
HEK293T cells carrying the ATF4 luciferase reporter were plated on 96-well plates (Nunc) at 10,000 cells per well. Cells were treated two days after seeding with 100 nM thapsigargin (Tg) (Sigma-Aldrich #T9033) in the presence of different concentrations of selected compounds ranging from 1 nM to […]. Cells without treatment or cells treated with Tg alone were used as controls. Assay plates containing cells were incubated for 3 hours at 37° C.
Luciferase reactions were performed using Luciferase Assay System (Promega #E1501) as specified by the manufacturer. Luminescence was read with an integration time of 1 s and a gain of 110 using a Cytation-5 multi-mode microplate reader (BioTek). Relative luminescence units were normalized to Tg treatment (0% inhibition) and untreated cells (100% inhibition) and the percentage of ATF4 inhibition was calculated.
Accordingly, inhibition of ATF4 expression as a result of the test compound indicates suppression of the ISR pathway.

Balb/c mice = test: Fasting-induced muscle atrophy, in vivo protein synthesis; conditions: 10 mg/kg oral, 2 days fasting, versus vehicle-treated fasted mice; FIG. 1
Experimental: Wild type eight-weeks-old male Balb/c mice obtained from the vivarium Fundaciön Ciencia & Vida Chile (Santiago, Chile) are used. Mice were housed in independent plastic cages in a room maintained at 25° C. with a 12-h:12-h light:dark cycle. […]
Upon collection, muscles were immediately frozen in liquid nitrogen and then stored at −80° C. […] Protein concentration in supernatants was determined using BCA Protein Assay Kit (Pierce). […]
Puromycin (12D10) (Merck Millipore, and β-actin (Sigma-Aldrich) antibodies were used as primary antibodies. A HRP-conjugated secondary antibody (Rockland) was employed to detect immune-reactive bands using enhanced chemiluminescence (ECL Western Blotting Substrate, Pierce). Quantification of protein bands was done by densitometry using ImageJ software.
Percent of protein synthesis in tibialis anterior of each mouse from fed or fasted animals treated with vehicle or compound 3 is shown in FIG. 1. The levels were normalized to β-actin expression and percentage was calculated as the percent relative to protein synthesis levels from control mice (Fed) which correspond to 100%.

Structure (SMILES) | % Protein synthesis in unstressed cells (1 μM test compound) [1] | IC50 (ATF4) | Protein synthesis in tibialis anterior of fasted mice (Balb/c mice)
O=C(NC1CCN(CC(O)COc2ccc(Cl)c(F)c2)CC1)c1cn(C2CC2)c2cc(Cl)c(F)cc2c1=O (centres unmarked) [Compound 1, 7-chloro-N-(1-(3-(4-chloro-3-fluorophenoxy)-2-hydroxypropyl)piperidin-4-yl)-1-cyclopropyl-6-fluoro-4-oxo-1,4-dihydroquinoline-3-carboxamide] | 336.9% | > 10 µM | 
O=C(NC1CCN(C[C@@H](O)COc2ccc(Cl)c(F)c2)CC1)c1cn(C2CC2)c2cc(Cl)c(F)cc2c1=O [Compound 2, (R)-7-chloro-N-(1-(3-(4-chloro-3-fluorophenoxy)-2-hydroxypropyl)piperidin-4-yl)-1-cyclopropyl-6-fluoro-4-oxo-1,4-dihydroquinoline-3-carboxamide] | 336.3% | > 10 µM | 
O=C(NC1CCN(C[C@H](O)COc2ccc(Cl)c(F)c2)CC1)c1cn(C2CC2)c2cc(Cl)c(F)cc2c1=O [Compound 3, (S)-7-chloro-N-(1-(3-(4-chloro-3-fluorophenoxy)-2-hydroxypropyl)piperidin-4-yl)-1-cyclopropyl-6-fluoro-4-oxo-1,4-dihydroquinoline-3-carboxamide] | 397.3% | > 10 µM | improvement in protein synthesis in muscles
O=C(NN1CCN(C[C@@H](O)COc2ccc(Cl)c(F)c2)CC1)c1cn(C2CC2)c2cc(Cl)c(F)cc2c1=O [Compound 5, (R)-7-chloro-N-(4-(3-(4-chloro-3-fluorophenoxy)-2-hydroxypropyl)piperazin-1-yl)-1-cyclopropyl-6-fluoro-4-oxo-1,4-dihydroquinoline-3-carboxamide] | 173.2% | > 10 µM | 
O=C(NN1CCN(C[C@H](O)COc2ccc(Cl)c(F)c2)CC1)c1cn(C2CC2)c2cc(Cl)c(F)cc2c1=O [Compound 6, (S)-7-chloro-N-(4-(3-(4-chloro-3-fluorophenoxy)-2-hydroxypropyl)piperazin-1-yl)-1-cyclopropyl-6-fluoro-4-oxo-1,4-dihydroquinoline-3-carboxamide] | 244.5% | > 10 µM | 
